According to patent publication US20220218679A1, “NOVEL COMPOUNDS AND PHARMACEUTICAL COMPOSITIONS THEREOF FOR THE TREATMENT OF INFLAMMATORY DISORDERS” (Galapagos NV, priority 2019, published 2022):
Values after ≈ are worked out from the molar mass of the structure shown. Like-named read-outs stand apart in the source and are kept apart here.

Legend:
Thermodynamic solubility = type: physicochemical; conditions: for solubility thermodynamic at 24 h: 37 °C, thermodynamic from solid
Description: 4.2. Thermodynamic Solubility
Poor solubility, in particular poor thermodynamic solubility can limit the absorption of compounds from the gastrointestinal tract which in turn may reduce oral bioavailability.
Thermodynamic solubility investigates the solubility of a compound as a saturated solution in equilibrium, by opposition to kinetic solubility, which measures the solubility of a metastable solution where supersaturation may occur and provide over estimation of the actual solubility of the compound. (Klein, 2010)
4.2.2. Thermodynamic Solubility—Protocol 2
In a 8 mL glass vial, 1-2 mg of dry matter of compound were added and stirred with the suitable buffers (Fed State Simulated Intestine Fluid, FeSSIF, or Fasted State Simulated Intestine Fluid, FaSSIF, or Fasted State Simulated Gastric Fluid, FaSSGF, or phosphate buffer pH 7.4) for 24 h at r.t. (for the buffer pH 7.4) or 37° C. (for the GI fluids). The concentration of the mixture was 1 mg/mL.
A volume of 1000 μL were sampled, centrifuged for 10 min at 10 000 rpm and 500 μL of the supernatant were filtered on captiva plate. The samples were diluted in duplicates in DMSO (F100 and F10). Then, a final dilution (F100) in 80/20 H2O/MeCN containing the internal standard (warfarin) was used for LCMS-MS analysis.
A standard curve was made starting from a 40,000 ng/mL stock in DMSO, freshly prepared from dry matter. Then, successive concentrations at 15,000, 11,000, 6,000, 2,500, 1,000, 375, 150 and 75 ng/mL in DMSO were prepared.
Three quality control samples were made: one of 10,000, 1,500 and 200 ng/mL in DMSO, also starting from the DMSO working stock solution at 40,000 ng/mL.
The standard curve and quality controls were diluted a F100 in 80/20 H2O/MeCN (with internal standard) and analyzed on LC/MS-MS (API4000 or API5500).
The samples were analyzed on LC-MS with a flow rate of 0.6 mL/min. The mobile phase A was 0.1% formic acid in water and the mobile phase B was 0.1% formic acid in 90% MeCN and 10% of H2O. The sample was run under positive or negative ion spray on Pursuit C18—5 μm (2.0×20 mm) column, from Agilent.
The ratio analyte/internal standard peaks areas of the standard curve were plotted in a graph and a linear or polynomial of the second order equation was used to calculate the unknown concentrations of the test compound.
Solubility values were reported in μg/mL.

Mouse Hepatocyte = assay: Metabolic stability in hepatocytes (mouse); type: in vitro ADME; conditions: 1 μM test compound, cryopreserved mouse hepatocytes
Method: 4.6. Metabolic Stability in Hepatocytes
The aim of this assay is to determine the metabolic stability of the compound in hepatocytes (cryopreserved) of different species. Low hepatocyte stability may result in the formation of unwanted metabolites, high clearance, and therefore is not desirable.
The decrease in parent was assessed by measuring the percentage remaining by LC-MS/MS analysis.
A 10 mM stock solution of test compound in DMSO was first diluted in DMSO to 3 mM, and then in modified Krebs-Henseleit buffer (Sigma, K3753) to 5 μM. This compound dilution was added to a suspension of pooled cryopreserved hepatocytes (BioreclamationIVT) at 37° C. under gentle shaking.
Final reaction conditions were: 1 μM of test compound, 0.03% DMSO, 0.5 million viable hepatocytes/mL, and 75 μL incubation volume.
Testosterone (1 μM) and 7-hydroxycoumarin (1 μM) were used, respectively as phase I and phase II metabolic reaction controls.
After 0, 10, 20, 45, 90, 120 and 180 min of incubation, the reaction was terminated with 225 μL of MeCN:MeOH (2:1) containing 100 ng/mL of diclofenac as analytical internal standard. Samples were mixed, centrifuged and the supernatant analyzed by LC-MS/MS.
The instrument responses (ratios of test compound and internal standard peak areas) were referenced to the zero time point samples (considered as 100%) in order to determine the percentage of compound remaining.
Plots of percentage compound remaining were used to determine the intrinsic clearance in the hepatocyte incubations using the following equations:
Scaled Clint [L/h/kg]=Clint[μL/min/10^6 cells]*#(10^6) cells/g liver*60*( 1/10^6) Scaled Clint unbound [L/h/kg]=Clint [L/h/kg]/Fu,inc where: fu,inc equals hepatocyte binding, derived from microsomal binding (fu,mic) by following equation: […]

[1] = Fasted State Simulated Gastric Fluid, 24 h, 37° C.
[2] = Fasted State Simulated Intestine Fluid (FaSSIF), fassif, Fasted State Simulated Intestine Fluid, read-out: Tsol FaSSIF
[3] = Fed State Simulated Intestine Fluid (FeSSIF), fessif, Fed State Simulated Intestine Fluid, read-out: Tsol FeSSIF
[4] = Fasted State Simulated Gastric Fluid (FaSSGF), fassgf or other biorelevant, Fasted State Simulated Gastric Fluid, read-out: Tsol FaSSGF

Row | SMILES | Tsol FaSSGF (Thermodynamic solubility; [1]) | solubility thermodynamic at 24 h (Thermodynamic solubility; [2]) | solubility thermodynamic at 24 h (Thermodynamic solubility; [3]) | Tsol FaSSIF (Thermodynamic solubility; Fasted State Simulated Intestine Fluid, 24 h, 37° C.) | Tsol FeSSIF (Thermodynamic solubility; Fed State Simulated Intestine Fluid, 24 h, 37° C.) | Mouse Hepatocyte stability (Perc. remaining at 90 min) (Mouse Hepatocyte) | solubility thermodynamic at 24 h (Thermodynamic solubility; [4])
1 | COc1cn2nc(CC(F)C(C)(C)O)cc2cc1NC(=O)c1cccn(C2CC2)c1=O (single isomer, unassigned; enantiomer a) [Compound 25, 1-cyclopropyl-N-[2-(2-fluoro-3-hydroxy-3-methyl-butyl)-6-methoxy-pyrazolo[1,5-a]pyridin-5-yl]-2-oxo-pyridine-3-carboxamide Enantiomer A] | 389 µg/mL | 20.2 µg/mL (≈ 47.1 µM) | 59.6 µg/mL (≈ 139 µM) | – | – | – | –
2 | COc1cn2nc(CC(F)C(C)(C)O)cc2cc1NC(=O)c1cccn(C2CC2)c1=O (single isomer, unassigned; enantiomer b) [Compound 26, 1-cyclopropyl-N-[2-(2-fluoro-3-hydroxy-3-methyl-butyl)-6-methoxy-pyrazolo[1,5-a]pyridin-5-yl]-2-oxo-pyridine-3-carboxamide Enantiomer B] | 818 µg/mL | – | – | 34.5 µg/mL | 52.7 µg/mL | – | –
3 | COc1cn2nc(CCC(C)(C)O)cc2cc1NC(=O)c1cccn(C2CC2)c1=O [Compound 1, 1-cyclopropyl-N-[2-(3-hydroxy-3-methylbutyl)-6-methoxypyrazolo[1,5-a]pyridin-5-yl]-2-oxopyridine-3-carboxamide] | – | 11.3 µg/mL (≈ 27.5 µM) | 83.4 µg/mL (≈ 203 µM) | – | – | 99.45 Perc. | –
4 | COc1cn2nc(CCC(C)(C)O)cc2cc1NC(=O)c1cccn(C)c1=O [Compound 2, N-[2-(3-hydroxy-3-methylbutyl)-6-methoxypyrazolo[1,5-a]pyridin-5-yl]-1-methyl-2-oxopyridine-3-carboxamide] | – | 10.2 µg/mL (≈ 26.5 µM) | – | – | – | 94.1 Perc. | –
5 | COc1cn2nc(CCC(C)(C)O)cc2cc1NC(=O)c1cccc(C(F)(F)F)n1 [Compound 3, N-[2-(3-hydroxy-3-methylbutyl)-6-methoxypyrazolo[1,5-a]pyridin-5-yl]-6-(trifluoromethyl)pyridine-2-carboxamide] | – | 0.801 µg/mL (≈ 1.9 µM) | 27.6 µg/mL (≈ 65.3 µM) | – | – | 10.17 Perc. | 106 µg/mL (≈ 251 µM)
6 | CC(C)(O)CCc1cc2cc(NC(=O)c3cccc(C(F)(F)F)n3)c(C(N)=O)cn2n1 [Compound 4, 2-(3-hydroxy-3-methylbutyl)-5-[[6-(trifluoromethyl)pyridine-2-carbonyl]amino]pyrazolo[1,5-a]pyridine-6-carboxamide] | – | 0.75 µg/mL (≈ 1.72 µM) | 6.01 µg/mL (≈ 13.8 µM) | – | – | – | < 0.75 µg/mL
7 | CNC(=O)c1cn2nc(CCC(C)(C)O)cc2cc1NC(=O)c1cccc(C(F)(F)F)n1 [Compound 5, 2-(3-hydroxy-3-methylbutyl)-N-methyl-5-[[6-(trifluoromethyl)pyridine-2-carbonyl]amino]pyrazolo[1,5-a]pyridine-6-carboxamide] | – | 2.26 µg/mL (≈ 5.03 µM) | 14.2 µg/mL (≈ 31.6 µM) | – | – | 76.25 Perc. | 1.96 µg/mL (≈ 4.36 µM)
8 | COc1cn2nc(CCC(C)(C)O)cc2cc1NC(=O)c1cccn(C(F)F)c1=O [Compound 7, 1-(difluoromethyl)-N-[2-(3-hydroxy-3-methyl-butyl)-6-methoxy-pyrazolo[1,5-a]pyridin-5-yl]-2-oxo-pyridine-3-carboxamide] | – | 28 µg/mL (≈ 66.6 µM) | 93.9 µg/mL (≈ 223 µM) | – | – | 108.25 Perc. | > 1000 µg/mL
9 | CNC(=O)c1cn2nc(C3CCCS(=O)(=O)C3)cc2cc1NC(=O)c1cccc(C(F)(F)F)n1 (centres unmarked) [Compound 8, 2-(1,1-dioxothian-3-yl)-N-methyl-5-[[6-(trifluoromethyl)pyridine-2-carbonyl]amino]pyrazolo[1,5-a]pyridine-6-carboxamide] | – | < 0.75 µg/mL | < 0.75 µg/mL | – | – | 75.15 Perc. | < 0.75 µg/mL
10 | CCOc1cn2nc(CCC(C)(C)O)cc2cc1NC(=O)c1cccn(C(F)F)c1=O [Compound 9, 1-(difluoromethyl)-N-[6-ethoxy-2-(3-hydroxy-3-methyl-butyl)pyrazolo[1,5-a]pyridin-5-yl]-2-oxo-pyridine-3-carboxamide] | – | 3.96 µg/mL (≈ 9.12 µM) | – | – | – | 83.65 Perc. | 3.82 µg/mL (≈ 8.79 µM)
11 | CNC(=O)c1cn2nc(C3CCN(C)CC3)cc2cc1NC(=O)c1cccc(C(F)(F)F)n1 [Compound 12, N-methyl-2-(1-methyl-4-piperidyl)-5-[[6-(trifluoromethyl)pyridine-2-carbonyl]amino]pyrazolo[1,5-a]pyridine-6-carboxamide] | – | 183 µg/mL (≈ 397 µM) | – | – | – | 97.05 Perc. | > 1000 µg/mL
12 | CNC(=O)c1cn2nc(C3CCOCC3)cc2cc1NC(=O)c1cccc(C(F)F)n1 [Compound 15, 5-[[6-(difluoromethyl)pyridine-2-carbonyl]amino]-N-methyl-2-tetrahydropyran-4-yl-pyrazolo[1,5-a]pyridine-6-carboxamide] | – | < 0.75 µg/mL | – | – | – | – | < 0.75 µg/mL
13 | CNC(=O)c1cn2nc(CCC(C)(C)O)cc2cc1NC(=O)c1cccc(C(F)F)n1 [Compound 19, 5-[[6-(difluoromethyl)pyridine-2-carbonyl]amino]-2-(3-hydroxy-3-methyl-butyl)-N-methyl-pyrazolo[1,5-a]pyridine-6-carboxamide] | – | 12.5 µg/mL (≈ 29 µM) | 70.6 µg/mL (≈ 164 µM) | – | – | – | 8.26 µg/mL (≈ 19.1 µM)
14 | COc1cn2nc(CC(F)C(C)(C)O)cc2cc1NC(=O)c1cccn(C2CC2)c1=O (centres unmarked) [Compound 22, 1-cyclopropyl-N-[2-(2-fluoro-3-hydroxy-3-methyl-butyl)-6-methoxy-pyrazolo[1,5-a]pyridin-5-yl]-2-oxo-pyridine-3-carboxamide] | – | 14 µg/mL (≈ 32.7 µM) | 75.9 µg/mL (≈ 177 µM) | – | – | – | 50.6 µg/mL (≈ 118 µM)
15 | [2H]C([2H])([2H])C(O)(CCc1cc2cc(NC(=O)c3cccn(C4CC4)c3=O)c(OC)cn2n1)C([2H])([2H])[2H] [Compound 23, 1-cyclopropyl-N-[6-methoxy-2-[4,4,4-trideuterio-3-hydroxy-3-(trideuteriomethyl)butyl]pyrazolo[1,5-a]pyridin-5-yl]-2-oxo-pyridine-3-carboxamide] | – | 16 µg/mL (≈ 38.4 µM) | 93 µg/mL (≈ 223 µM) | – | – | – | 104 µg/mL (≈ 250 µM)
16 | [2H]C([2H])([2H])Oc1cn2nc(CCC(C)(C)O)cc2cc1NC(=O)c1cccn(C2CC2)c1=O [Compound 24, 1-cyclopropyl-N-[2-(3-hydroxy-3-methylbutyl)-6-(trideuteriomethoxy)pyrazolo[1,5-a]pyridin-5-yl]-2-oxopyridine-3-carboxamide] | – | 28.5 µg/mL (≈ 68.9 µM) | 105 µg/mL (≈ 254 µM) | – | – | – | 200 µg/mL (≈ 484 µM)
